What was measured:
Format in all cases: cell-based
Aspergillus terreus AT49 [1] = assay: MIC, YAG medium; settings: 24 h at 35° C, MIC banded into grades
Experimental: (§1) Between 1 and 5 mgs of compound were accurately weighed out into a sterile Eppendorf tube. The compound was dissolved in DMSO to give a solution containing 5 mg/mL. Tubes were stored at −20° C. until required.
(§2) On the day of testing thawed solutions were vortex mixed to ensure homogeneity. 30 μL of solution was removed and added to 570 μL of sterile water in a separate sterile Eppendorf. The thoroughly mixed solution was used to prepare a series of doubling dilutions in water, in a deep well plate. Thirteen replicate plates were prepared using a Minitrak by aspirating 20 μL from each well into eleven clear polystyrene 96 well plates.
(§3) Spores of Aspergillus spp. (Aspergillus fumigatus [two strains], Aspergillus terreus [two strains], Aspergillus niger and Aspergillus flavus) were harvested from cultures grown on Sabarauds agar for 5 days, and resuspended in PBS/Tween 80 to approx 1×10^7 cfu/mL. Each organism suspension was diluted in YAG medium (1% glucose, 1% ammonium chloride and 0.5% yeast extract) to 0.5−2×10^4 cfu/mL. 80 μL of an organism suspension was added to each well of the plate containing drug dilutions.
(§4) This produced MIC plates with a drug range 50-0.05 mg/L and organism inocula of 1−2×10^4 cfu/mL for Aspergillus spp. All plates were incubated for 24 h at 35° C. Growth was assessed by monitoring the optical density at 485 nm for each well. The MIC of a compound is the lowest drug concentration that inhibits growth of an organism by >70% compared with a drug free control. MICs are recorded as mg/L. In cases where the MIC of an organism is […] mg/L the MIC is repeated using a concentration range of 0.5-0.0005 mg/L.
(§5) The following organisms were tested: Aspergillus flavus, Aspergillus fumigatus AF293 and AF210, Aspergillus niger, Aspergillus terreus AT4 and AT49, Candida albicans, Candida glabrata, Candida krusei, Candida parapsilosis and Candida tropicalis.

Aspergillus niger [2] = assay: MIC, YAG medium; settings: 24 h at 35° C, MIC banded into grades
Experimental: as §1, §2, §3, §4, §5

Aspergillus terreus AT4 [3] = assay: MIC, YAG medium; settings: 24 h at 35° C, MIC banded into grades
Experimental: as §1, §2, §3, §4, §5

[4] = tested on: Aspergillus fumigatus AF293; assay: MIC, YAG medium; settings: 24 h at 35° C, MIC banded into grades
Experimental: as §1, §2, §3, §4, §5

Aspergillus flavus [5] = assay: MIC, YAG medium; settings: 24 h at 35° C, MIC banded into grades
Experimental: as §1, §2, §3, §4, §5

[6] = tested on: Aspergillus fumigatus AF210; assay: MIC, YAG medium; settings: 24 h at 35° C, MIC banded into grades
Experimental: as §1, §2, §3, §4, §5

Aspergillus terreus AT49 [7] = assay: MIC, RPMI medium; settings: for MIC grade, A. terreus 49: MIC banded into grades
Experimental: as §1, §2
(§6) Assays were also performed in RPMI medium for both Aspergillus spp. (strains described above) and Candida spp. (Candida albicans, Candida glabrata, Candida krusei, Candida parapsilosis and Candida tropicalis). To perform MIC tests in this medium, dilutions of compounds are prepared in microtitre plates as described above. Fungal strains to be tested are grown and harvested in an identical manner to that described above, and each organism suspension was diluted in RPMI medium, containing 2% glucose and 0.135 M MOPS buffer (pH 7.0) to 0.5-2×10^4 cfu/mL, rather than in YAG medium. 80 μL of an organism suspension was added to each well of the plate containing drug dilutions.
(§7) This produced MIC plates with a drug range 50-0.05 mg/L and organism inocula of 1−2×10^4 cfu/mL. All plates were incubated for 24-48 h at 35° C. Growth was assessed by monitoring the optical density at 485 nm for each well. The MIC of a compound is the lowest drug concentration that inhibits growth of an organism by >80% compared with a drug free control.
as §5

Aspergillus niger [8] = assay: MIC, RPMI medium; settings: MIC banded into grades
Experimental: as §1, §2, §6, §7, §5

Aspergillus terreus AT4 [9] = assay: MIC, RPMI medium; settings: for MIC grade, A. terreus: MIC banded into grades
Experimental: as §1, §2, §6, §7, §5

[10] = tested on: Aspergillus fumigatus AF293; assay: MIC, RPMI medium; settings: for MIC grade, A. fumigatus: MIC banded into grades
Experimental: as §1, §2, §6, §7, §5

Aspergillus flavus [11] = assay: MIC, RPMI medium; settings: MIC banded into grades
Experimental: as §1, §2, §6, §7, §5

[12] = tested on: Aspergillus fumigatus AF210; assay: MIC, RPMI medium; settings: for MIC grade, A. fumigatus 210: MIC banded into grades
Experimental: as §1, §2, §6, §7, §5

[13] = Aspergillus niger, read-out: MIC grade, A. niger

Row | Structure (SMILES) | MIC grade, A. terreus 49 (Aspergillus terreus AT49 [1]) | MIC grade, A. niger (Aspergillus niger [2]) | MIC grade, A. terreus (Aspergillus terreus AT4 [3]) | MIC grade, A. fumigatus [4] | MIC grade, A. flavus (Aspergillus flavus [5]) | MIC grade, A. fumigatus 210 [6] | MIC grade, A. terreus 49 (Aspergillus terreus AT49 [7]) | MIC grade, A. niger (Aspergillus niger [8]) | MIC grade, A. terreus (Aspergillus terreus AT4 [9]) | MIC grade, A. fumigatus [10] | MIC grade, A. flavus (Aspergillus flavus [11]) | MIC grade, A. fumigatus 210 [12] | further results
1 | COCCCCn1c(C)cc(-c2ccccc2)c1C(=O)C(=O)Nc1ccc(N2CCN(c3cc(C)cc(C)n3)CC2)cc1 [Example 142, N-{4-[4-(4,6-Dimethyl-pyridin-2-yl)-piperazin-1-yl]-phenyl}-2-[1-(4-methoxy-butyl)-5-methy-3-phenyl-1H-pyrrol-2-yl]-2-oxo-acetamide] | 3 (A grade of 3 represents an MIC of less than 1 mg/L) | 3 (A grade of 3 represents an MIC of less than 1 mg/L) | 3 (A grade of 3 represents an MIC of less than 1 mg/L) | 3 (A grade of 3 represents an MIC of less than 1 mg/L) | 3 (A grade of 3 represents an MIC of less than 1 mg/L) | 3 (A grade of 3 represents an MIC of less than 1 mg/L) | 3 (A grade of 3 represents an MIC of less than 1 mg/L) | 3 (A grade of 3 represents an MIC of less than 1 mg/L) | 3 (A grade of 3 represents an MIC of less than 1 mg/L) | 3 (A grade of 3 represents an MIC of less than 1 mg/L) | 3 (A grade of 3 represents an MIC of less than 1 mg/L) | 3 (A grade of 3 represents an MIC of less than 1 mg/L) | 
2 | Cc1cc(-c2ccccc2)c(C(=O)C(=O)Nc2ccc(N3CCN(CC(C)C)CC3)c(F)c2)n1C [Example 118, 2-(1,5-Dimethyl-3-phenyl-1H-pyrrol-2-yl)-N-[3-fluoro-4-(4-isobutyl-piperazin-1-yl)-phenyl]-2-oxo-acetamide] |  |  |  |  |  |  |  |  |  |  |  |  | MIC (Aspergillus terreus AT49 [1]; Aspergillus terreus, read-out: MIC grade, A. terreus 49): < 1 µg/mL; MIC (Aspergillus niger [2]; [13]): < 1 µg/mL; MIC (Aspergillus terreus AT4 [3]; Aspergillus terreus, read-out: MIC grade, A. terreus): < 1 µg/mL; MIC ([4]; Aspergillus fumigatus, read-out: MIC grade, A. fumigatus): < 1 µg/mL; MIC (Aspergillus flavus [5]; Aspergillus flavus, 24 h, read-out: MIC grade, A. flavus): < 1 µg/mL; MIC ([6]; Aspergillus fumigatus, read-out: MIC grade, A. fumigatus 210): < 1 µg/mL; MIC (Aspergillus terreus AT49 [7]; Aspergillus terreus, AT49, MIC banded into grades, read-out: MIC grade, A. terreus 49): < 1 µg/mL; MIC (Aspergillus niger [8]; [13]): < 1 µg/mL; MIC (Aspergillus terreus AT4 [9]; Aspergillus terreus, AT4, MIC banded into grades, read-out: MIC grade, A. terreus): < 1 µg/mL; MIC ([10]; Aspergillus fumigatus, AF293, MIC banded into grades, read-out: MIC grade, A. fumigatus): < 1 µg/mL; MIC (Aspergillus flavus [11]; Aspergillus flavus, read-out: MIC grade, A. flavus): < 1 µg/mL; MIC ([12]; Aspergillus fumigatus, AF210, MIC banded into grades, read-out: MIC grade, A. fumigatus 210): < 1 µg/mL
3 | COC(=O)Cn1cccc1C(=O)C(=O)Nc1ccc(N2CCN(c3cc(C)cc(C)n3)CC2)cc1 [Example 61, (2-{4-[4-(4,6-Dimethyl-pyridin-2-yl)-piperazin-1-yl]-phenylaminooxalyl}-pyrrol-1-yl)-acetic acid methyl ester] | 1 (a grade of 1 represents an MIC of greater than 10 mg/L) | 1 (a grade of 1 represents an MIC of greater than 10 mg/L) | 1 (a grade of 1 represents an MIC of greater than 10 mg/L) | 1 (a grade of 1 represents an MIC of greater than 10 mg/L) | 1 (a grade of 1 represents an MIC of greater than 10 mg/L) | 2 (A grade of 2 represents an MIC of from 1 to 10 mg/L) | 1 (a grade of 1 represents an MIC of greater than 10 mg/L) | 1 (a grade of 1 represents an MIC of greater than 10 mg/L) | 1 (a grade of 1 represents an MIC of greater than 10 mg/L) | 1 (a grade of 1 represents an MIC of greater than 10 mg/L) | 1 (a grade of 1 represents an MIC of greater than 10 mg/L) | 2 (A grade of 2 represents an MIC of from 1 to 10 mg/L) | 

Reference: patent US8993574B2, “Pyrrole antifungal agents” (F2G Ltd, priority 2008, dated 2015)
